Experiments:
[1] = tested on: Tyrosine-protein kinase ABL1 (Homo sapiens), P00519 [Q252H]
[2] = tested on: Tyrosine-protein kinase ABL1 (Homo sapiens), P00519 [T315I]
[3] = target: Atypical kinase COQ8A, mitochondrial (Homo sapiens) (UniProt Q8NI60)
[4] = tested on: ALK tyrosine kinase receptor (Homo sapiens), Q9UM73 [L1196M]
[5] = target: 5'-AMP-activated protein kinase catalytic subunit alpha-2 (Homo sapiens) (UniProt P54646)
[6] = target: NUAK family SNF1-like kinase 1 (Homo sapiens) (UniProt O60285)
[7] = target: Calcium/calmodulin-dependent protein kinase kinase 2 (Homo sapiens) (UniProt Q96RR4)
[8] = target: Cyclin-dependent kinase 11A (Homo sapiens) (UniProt Q9UQ88)
[9] = target: Cyclin-dependent kinase-like 1 (Homo sapiens) (UniProt Q00532)
[10] = target: Macrophage colony-stimulating factor 1 receptor (Homo sapiens) (UniProt P07333)
[11] = target: Serine/threonine-protein kinase DCLK3 (Homo sapiens) (UniProt Q9C098)
[12] = target: Epithelial discoidin domain-containing receptor 1 (Homo sapiens) (UniProt Q08345)
[13] = target: Epidermal growth factor receptor (Homo sapiens) (UniProt P00533)
[14] = tested on: Epidermal growth factor receptor (Homo sapiens), P00533 [UNDEFINED MUTATION]
[15] = tested on: Epidermal growth factor receptor (Homo sapiens), P00533 [L858R]
[16] = target: Eukaryotic translation initiation factor 2-alpha kinase 1 (Homo sapiens) (UniProt Q9BQI3)
[17] = target: Mitogen-activated protein kinase 4 (Homo sapiens) (UniProt P31152)
[18] = target: Mitogen-activated protein kinase 7 (Homo sapiens) (UniProt Q13164)
[19] = target: Fibroblast growth factor receptor 4 (Homo sapiens) (UniProt P22455)
[20] = target: Vascular endothelial growth factor receptor 1 (Homo sapiens) (UniProt P17948)
[21] = target: Tyrosine-protein kinase FRK (Homo sapiens) (UniProt P42685)
[22] = tested on: eIF-2-alpha kinase GCN2 (Homo sapiens), Q9P2K8 [S808G]
[23] = target: Tyrosine-protein kinase JAK1 (Homo sapiens) (UniProt P23458)
[24] = tested on: Mast/stem cell growth factor receptor Kit (Homo sapiens), P10721 [D816V]
[25] = target: Serine/threonine-protein kinase 10 (Homo sapiens) (UniProt O94804)
[26] = target: Serine/threonine-protein kinase MARK1 (Homo sapiens) (UniProt Q9P0L2)
[27] = target: Dual specificity mitogen-activated protein kinase kinase 4 (Homo sapiens) (UniProt P45985)
[28] = target: Maternal embryonic leucine zipper kinase (Homo sapiens) (UniProt Q14680)
[29] = target: Serine/threonine-protein kinase MRCK beta (Homo sapiens) (UniProt Q9Y5S2)
[30] = target: Serine/threonine-protein kinase PAK 4 (Homo sapiens) (UniProt O96013)
[31] = target: Platelet-derived growth factor receptor beta (Homo sapiens) (UniProt P09619)
[32] = tested on: Phosphatidylinositol 4,5-bisphosphate 3-kinase catalytic subunit alpha isoform (Homo sapiens), P42336 [I800L]
[33] = target: Serine/threonine-protein kinase N2 (Homo sapiens) (UniProt Q16513)
[34] = target: Protein kinase C eta type (Homo sapiens) (UniProt P24723)
[35] = target: Protein kinase C iota type (Homo sapiens) (UniProt P41743)
[36] = target: Serine/threonine-protein kinase RIO2 (Homo sapiens) (UniProt Q9BVS4)
[37] = target: Receptor-interacting serine/threonine-protein kinase 1 (Homo sapiens) (UniProt Q13546)
[38] = target: Ribosomal protein S6 kinase alpha-3 (Homo sapiens) (UniProt P51812)
[39] = target: Dual specificity testis-specific protein kinase 1 (Homo sapiens) (UniProt Q15569)
[40] = target: Angiopoietin-1 receptor (Homo sapiens) (UniProt Q02763)
[41] = target: Serine/threonine-protein kinase TNNI3K (Homo sapiens) (UniProt Q59H18)
[42] = target: Serine/threonine-protein kinase WNK3 (Homo sapiens) (UniProt Q9BYP7)
[43] = target: Sodium-dependent noradrenaline transporter (Homo sapiens) (UniProt P23975); details: Compound concentration 10.0 uM
[44] = target: Kappa-type opioid receptor (Homo sapiens) (UniProt P41145); details: Compound concentration 10.0 uM
[45] = target: Alpha-2C adrenergic receptor (Homo sapiens) (UniProt P18825); details: Compound concentration 10.0 uM
[46] = Compound concentration 1000.0 nM
[47] = Compound concentration 100.0 nM

Sequence of ALK tyrosine kinase receptor (Homo sapiens), Q9UM73 [L1196M] (Q9UM73 whole entry L1196M, looked up): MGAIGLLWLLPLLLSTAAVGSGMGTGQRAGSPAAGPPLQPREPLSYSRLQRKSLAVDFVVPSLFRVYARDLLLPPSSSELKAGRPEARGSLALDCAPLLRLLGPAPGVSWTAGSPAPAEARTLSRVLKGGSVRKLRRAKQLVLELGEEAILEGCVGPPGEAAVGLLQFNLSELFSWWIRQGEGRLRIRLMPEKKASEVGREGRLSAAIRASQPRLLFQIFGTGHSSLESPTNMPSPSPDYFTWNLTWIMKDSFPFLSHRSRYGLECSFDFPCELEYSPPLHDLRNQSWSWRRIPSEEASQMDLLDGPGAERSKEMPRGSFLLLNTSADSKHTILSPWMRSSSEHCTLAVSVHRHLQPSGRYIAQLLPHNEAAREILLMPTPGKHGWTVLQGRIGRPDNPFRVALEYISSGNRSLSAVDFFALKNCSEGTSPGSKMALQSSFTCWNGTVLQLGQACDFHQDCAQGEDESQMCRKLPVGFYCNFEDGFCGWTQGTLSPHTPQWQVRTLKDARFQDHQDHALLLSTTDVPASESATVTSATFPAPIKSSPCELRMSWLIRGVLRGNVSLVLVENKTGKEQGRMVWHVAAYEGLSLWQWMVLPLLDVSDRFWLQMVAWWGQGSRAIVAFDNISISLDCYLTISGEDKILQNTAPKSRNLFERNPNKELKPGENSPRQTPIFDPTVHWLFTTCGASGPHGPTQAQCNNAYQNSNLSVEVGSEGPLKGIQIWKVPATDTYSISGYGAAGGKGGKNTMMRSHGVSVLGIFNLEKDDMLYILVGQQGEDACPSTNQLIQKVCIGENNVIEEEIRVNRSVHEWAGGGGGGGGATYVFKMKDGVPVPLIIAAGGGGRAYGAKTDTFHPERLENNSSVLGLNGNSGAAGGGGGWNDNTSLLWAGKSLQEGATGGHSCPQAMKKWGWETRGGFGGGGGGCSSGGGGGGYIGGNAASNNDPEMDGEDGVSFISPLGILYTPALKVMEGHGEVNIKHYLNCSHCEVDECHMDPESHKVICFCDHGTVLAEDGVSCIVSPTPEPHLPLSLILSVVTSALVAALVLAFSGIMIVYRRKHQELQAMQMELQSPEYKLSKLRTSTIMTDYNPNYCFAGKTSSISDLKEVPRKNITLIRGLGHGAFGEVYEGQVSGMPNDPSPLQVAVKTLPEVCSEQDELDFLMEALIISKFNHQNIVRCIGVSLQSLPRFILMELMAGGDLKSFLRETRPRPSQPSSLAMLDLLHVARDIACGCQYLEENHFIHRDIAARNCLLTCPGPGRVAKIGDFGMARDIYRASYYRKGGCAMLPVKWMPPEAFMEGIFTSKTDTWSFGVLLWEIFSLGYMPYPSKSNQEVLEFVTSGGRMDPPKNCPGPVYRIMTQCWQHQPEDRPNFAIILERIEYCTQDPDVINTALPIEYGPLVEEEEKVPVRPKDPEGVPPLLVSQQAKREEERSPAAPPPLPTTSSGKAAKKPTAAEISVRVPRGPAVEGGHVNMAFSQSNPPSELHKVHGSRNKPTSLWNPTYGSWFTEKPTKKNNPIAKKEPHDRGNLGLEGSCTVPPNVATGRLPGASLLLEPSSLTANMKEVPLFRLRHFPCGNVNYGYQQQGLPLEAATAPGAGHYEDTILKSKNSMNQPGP
Sequence of Phosphatidylinositol 4,5-bisphosphate 3-kinase catalytic subunit alpha isoform (Homo sapiens), P42336 [I800L] (P42336 whole entry I800L, canonical isoform): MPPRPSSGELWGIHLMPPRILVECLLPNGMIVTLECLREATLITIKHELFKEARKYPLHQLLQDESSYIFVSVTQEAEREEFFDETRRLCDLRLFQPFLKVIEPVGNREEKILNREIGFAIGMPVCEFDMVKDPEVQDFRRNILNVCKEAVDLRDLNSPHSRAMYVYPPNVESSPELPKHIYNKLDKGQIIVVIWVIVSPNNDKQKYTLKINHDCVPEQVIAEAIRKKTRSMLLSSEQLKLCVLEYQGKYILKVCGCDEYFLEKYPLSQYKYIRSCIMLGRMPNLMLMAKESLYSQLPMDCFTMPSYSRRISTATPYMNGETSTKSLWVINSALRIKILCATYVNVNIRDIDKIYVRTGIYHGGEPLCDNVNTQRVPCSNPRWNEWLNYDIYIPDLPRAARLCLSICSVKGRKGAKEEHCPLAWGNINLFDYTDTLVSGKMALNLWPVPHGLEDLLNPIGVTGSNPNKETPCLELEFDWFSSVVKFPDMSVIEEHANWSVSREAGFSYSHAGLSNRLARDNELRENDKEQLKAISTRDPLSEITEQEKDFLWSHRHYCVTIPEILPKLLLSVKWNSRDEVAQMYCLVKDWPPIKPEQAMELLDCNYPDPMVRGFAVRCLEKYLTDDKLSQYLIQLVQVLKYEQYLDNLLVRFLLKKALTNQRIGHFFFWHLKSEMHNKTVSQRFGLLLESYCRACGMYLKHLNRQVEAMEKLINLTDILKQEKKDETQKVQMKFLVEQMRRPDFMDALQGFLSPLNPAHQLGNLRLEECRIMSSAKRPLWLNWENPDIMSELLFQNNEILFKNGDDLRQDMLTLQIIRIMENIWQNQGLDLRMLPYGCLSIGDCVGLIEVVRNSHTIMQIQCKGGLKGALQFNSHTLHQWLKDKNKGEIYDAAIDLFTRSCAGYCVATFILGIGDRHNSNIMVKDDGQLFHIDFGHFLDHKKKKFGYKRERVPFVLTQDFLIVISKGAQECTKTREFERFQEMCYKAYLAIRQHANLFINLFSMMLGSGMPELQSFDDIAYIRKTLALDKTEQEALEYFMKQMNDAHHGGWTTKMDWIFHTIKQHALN
Sequence of Macrophage colony-stimulating factor 1 receptor (Homo sapiens) (P07333 whole entry): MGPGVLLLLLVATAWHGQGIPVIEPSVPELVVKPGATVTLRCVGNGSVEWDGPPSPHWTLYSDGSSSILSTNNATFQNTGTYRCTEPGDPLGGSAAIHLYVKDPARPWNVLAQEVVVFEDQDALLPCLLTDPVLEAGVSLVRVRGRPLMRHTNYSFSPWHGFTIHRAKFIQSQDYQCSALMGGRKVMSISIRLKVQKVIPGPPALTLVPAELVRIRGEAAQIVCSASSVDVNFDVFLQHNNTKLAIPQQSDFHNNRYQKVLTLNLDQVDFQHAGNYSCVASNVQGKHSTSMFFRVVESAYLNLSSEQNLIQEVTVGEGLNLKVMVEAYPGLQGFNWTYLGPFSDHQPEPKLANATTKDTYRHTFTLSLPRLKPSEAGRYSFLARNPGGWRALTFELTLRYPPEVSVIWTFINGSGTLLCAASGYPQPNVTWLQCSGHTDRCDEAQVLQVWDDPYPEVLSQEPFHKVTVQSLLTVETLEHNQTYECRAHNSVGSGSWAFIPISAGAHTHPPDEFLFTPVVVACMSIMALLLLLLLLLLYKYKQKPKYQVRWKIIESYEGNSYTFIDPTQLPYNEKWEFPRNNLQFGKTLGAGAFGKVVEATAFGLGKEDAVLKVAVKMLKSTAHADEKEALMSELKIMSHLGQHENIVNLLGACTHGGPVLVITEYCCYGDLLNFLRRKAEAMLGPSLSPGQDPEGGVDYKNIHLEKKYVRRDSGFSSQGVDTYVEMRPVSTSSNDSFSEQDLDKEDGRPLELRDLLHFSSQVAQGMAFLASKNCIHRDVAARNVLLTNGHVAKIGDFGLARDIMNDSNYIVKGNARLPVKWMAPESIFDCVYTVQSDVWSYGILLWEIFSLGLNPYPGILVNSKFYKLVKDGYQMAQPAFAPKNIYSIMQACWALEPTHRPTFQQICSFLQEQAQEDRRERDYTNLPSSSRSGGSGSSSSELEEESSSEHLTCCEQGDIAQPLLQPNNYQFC
Sequence of Kappa-type opioid receptor (Homo sapiens) (P41145 whole entry): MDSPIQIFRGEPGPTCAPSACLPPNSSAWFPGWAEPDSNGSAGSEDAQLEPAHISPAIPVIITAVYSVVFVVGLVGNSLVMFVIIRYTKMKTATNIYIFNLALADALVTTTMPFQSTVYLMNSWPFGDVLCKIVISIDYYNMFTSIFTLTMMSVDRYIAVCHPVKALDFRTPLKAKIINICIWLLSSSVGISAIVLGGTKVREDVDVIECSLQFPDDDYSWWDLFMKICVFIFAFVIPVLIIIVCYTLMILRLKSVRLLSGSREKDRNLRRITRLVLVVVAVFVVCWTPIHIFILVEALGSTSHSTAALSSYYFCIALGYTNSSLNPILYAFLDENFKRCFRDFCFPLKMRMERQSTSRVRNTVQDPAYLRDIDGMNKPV
Sequence of Serine/threonine-protein kinase RIO2 (Homo sapiens) (Q9BVS4 whole entry, looked up): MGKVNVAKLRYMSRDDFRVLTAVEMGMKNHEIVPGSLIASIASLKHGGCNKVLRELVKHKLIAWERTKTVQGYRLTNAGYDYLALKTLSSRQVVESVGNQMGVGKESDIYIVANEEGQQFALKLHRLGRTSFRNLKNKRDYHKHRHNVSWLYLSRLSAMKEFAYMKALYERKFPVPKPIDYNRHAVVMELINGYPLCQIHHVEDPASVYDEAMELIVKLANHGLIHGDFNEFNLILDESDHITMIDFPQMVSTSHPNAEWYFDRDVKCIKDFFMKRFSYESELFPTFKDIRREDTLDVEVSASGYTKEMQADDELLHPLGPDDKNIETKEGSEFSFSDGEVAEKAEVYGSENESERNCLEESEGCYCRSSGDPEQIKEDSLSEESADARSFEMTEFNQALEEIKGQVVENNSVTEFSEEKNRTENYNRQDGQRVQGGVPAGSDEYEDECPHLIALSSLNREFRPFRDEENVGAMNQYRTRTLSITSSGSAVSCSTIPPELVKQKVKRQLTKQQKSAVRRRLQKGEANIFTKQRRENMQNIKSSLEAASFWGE
Sequence of Cyclin-dependent kinase-like 1 (Homo sapiens) (Q00532 whole entry): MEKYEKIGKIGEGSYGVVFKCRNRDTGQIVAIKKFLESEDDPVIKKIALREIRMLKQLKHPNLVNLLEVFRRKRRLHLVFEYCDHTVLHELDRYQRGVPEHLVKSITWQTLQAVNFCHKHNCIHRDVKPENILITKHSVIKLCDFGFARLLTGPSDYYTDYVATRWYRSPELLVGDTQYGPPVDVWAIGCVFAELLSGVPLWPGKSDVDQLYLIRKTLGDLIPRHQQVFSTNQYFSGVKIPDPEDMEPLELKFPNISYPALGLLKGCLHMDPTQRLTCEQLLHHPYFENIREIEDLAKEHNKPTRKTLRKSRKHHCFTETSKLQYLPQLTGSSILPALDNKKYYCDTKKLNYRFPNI

Compound: C[C@H](NC(=O)Nc1cc2[nH]ncc2c(CO)n1)c1ccccn1 [ERKi-NC]
- residual activity [1, 46]: 100%
- residual activity [2, 46]: 100%
- residual activity [3, 46]: 96.3%
- residual activity [4, 46]: 100%
- residual activity [5, 46]: 100%
- residual activity [6, 46]: 100%
- residual activity [7, 46]: 85.4%
- residual activity [8, 46]: 95.4%
- residual activity [9, 46]: 78.8%
- residual activity [10, 46]: 100%
- residual activity [11, 46]: 84.5%
- residual activity [12, 46]: 74.7%
- residual activity [13, 46]: 100%
- residual activity [14, 46]: 34.7%
- residual activity [15, 46]: 100%
- residual activity [16, 46]: 100%
- residual activity [17, 46]: 84.7%
- residual activity [18, 46]: 87.9%
- residual activity [19, 46]: 100%
- residual activity [20, 46]: 100%
- residual activity [21, 46]: 100%
- residual activity [22, 46]: 77.2%
- residual activity [23, 46]: 42.4%
- residual activity [24, 46]: 100%
- residual activity [25, 46]: 95.5%
- residual activity [26, 46]: 78.7%
- residual activity [27, 46]: 88.9%
- residual activity [28, 46]: 100%
- residual activity [29, 46]: 100%
- residual activity [30, 46]: 90.2%
- residual activity [31, 46]: 100%
- residual activity [32, 46]: 99.5%
- residual activity [33, 46]: 100%
- residual activity [34, 46]: 95.4%
- residual activity [35, 46]: 85.5%
- residual activity [36, 46]: 100%
- residual activity [37, 46]: 100%
- residual activity [38, 46]: 80.7%
- residual activity [39, 46]: 100%
- residual activity [40, 46]: 71.1%
- residual activity [41, 46]: 100%
- residual activity [42, 46]: 100%
- inhibition [43]: 25.4%
- inhibition [44]: 22.9%
- inhibition [45]: 11.5%

Compound: C[C@@H](NC(=O)Nc1cc2[nH]ncc2c(CO)n1)c1ccccc1 [ERKi]
- residual activity [1, 47]: 67.8%
- residual activity [2, 47]: 100%
- residual activity [3, 47]: 89.6%
- residual activity [4, 47]: 96.9%
- residual activity [5, 47]: 59.6%
- residual activity [6, 47]: 94.9%
- residual activity [7, 47]: 75.2%
- residual activity [8, 47]: 100%
- residual activity [9, 47]: 81.1%
- residual activity [10, 47]: 89.3%
- residual activity [11, 47]: 97.1%
- residual activity [12, 47]: 100%
- residual activity [13, 47]: 80.6%
- residual activity [14, 47]: 55.9%
- residual activity [15, 47]: 86.7%
- residual activity [16, 47]: 92.8%
- residual activity [17, 47]: 98.3%
- residual activity [18, 47]: 85.5%
- residual activity [19, 47]: 100%
- residual activity [20, 47]: 100%
- residual activity [21, 47]: 82.2%
- residual activity [22, 47]: 100%
- residual activity [23, 47]: 77%
- residual activity [24, 47]: 82.7%
- residual activity [25, 47]: 84.8%
- residual activity [26, 47]: 97%
- residual activity [27, 47]: 89.2%
- residual activity [28, 47]: 58.7%
- residual activity [29, 47]: 99.8%
- residual activity [30, 47]: 93.7%
- residual activity [31, 47]: 95.8%
- residual activity [32, 47]: 66%
- residual activity [33, 47]: 83.4%
- residual activity [34, 47]: 90.1%
- residual activity [35, 47]: 100%
- residual activity [36, 47]: 84.6%
- residual activity [37, 47]: 100%
- residual activity [38, 47]: 70%
- residual activity [39, 47]: 100%
- residual activity [40, 47]: 100%
- residual activity [41, 47]: 94.6%
- residual activity [42, 47]: 47.3%
- inhibition [43]: -9.99%
- inhibition [44]: 10.3%
- inhibition [45]: -8.07%
